Series [1] relates to MCF-7. The note with it: for IC50: read-out: IC50 (μM) MCF-7, MCF-7 breast carcinoma cells, mean of three independent experiments, 72 h incubation.
Protocol: (§1) The results were used to plot a dose–response curve, from which the concentrations of the tested samples required to kill half of the cell population (IC50) were determined. In addition, cytotoxic activities were expressed as the mean IC50 calculated from three independent experiments.
(§2) The cytotoxic potentials of the newly synthesized compounds was carried out at the Regional Center for Mycology and Biotechnology at Al-Azhar University, Cairo, Egypt. Cells were purchased from the Egyptian Holding Company for Biological Products and Vaccines (VACSERA, Giza, Egypt) and kept in a tissue culture unit. Cells were grown in Roswell Park Memorial Institute (RPMI)-1640 medium supplemented with 10% heat-inactivated fetal bovine serum (FBS), 50 units/mL penicillin, and 50 mg/mL streptomycin, and maintained in a humidified atmosphere containing 5% CO2 [11, 25]. Cells were maintained as monolayer cultures using serial subculture. Cell culture reagents were obtained from Lonza (Basel, Switzerland). The anticancer activities of the rest of the compounds were evaluated in MCF-7 (breast cancer) cells. In addition, the sulforhodamine B (SRB) assay method, as described previously in [39, 40], was used to determine cytotoxicity. Exponentially growing cells were collected using 0.25% trypsin–EDTA and seeded in 96-well plates at 1000–2000 cells/well in RBMI-1640 supplemented medium. After 24 h, cells were incubated for 72 h with various concentrations of the compounds tested. Following 72 h of incubation, the cells were fixed with 10% trichloroacetic acid for 1 h at 4 °C. Wells were stained for 10 min at room temperature with 0.4% sulforhodamine B (SRBC) dissolved in 1% acetic acid. Plates were air-dried for 24 h, and the dye was solubilized with Tris–HCl for 5 min on a shaker at 1600 rpm. The optical density (OD) of each well was measured spectrophotometrically at 564 nm using an ELISA microplate reader (ChroMate-4300, Palm City, FL, USA). IC50 values were calculated using a Boltzmann sigmoidal concentration–response curve using non-linear regression fitting models (Graph Pad, Prism Version 9, GraphPad Software, San Diego, CA, USA).
Series [2] concerns MCF-7. Description: cells. As to conditions: Homo sapiens, MCF7, 72 h, read-out: IC50 (μM) MCF-7, MCF-7 breast carcinoma cells; mean of three independent experiments; 72 h incubation.
Protocol: as §1, §2
The next series in a line: in vitro. The note with it: rhesus monkey.

Molecules are shown by their SMILES. Like-named read-outs stand apart in the source and are kept apart here.

Turning to `C/C(=N\N=c1/sc(/N=N/c2ccccc2)c(C)n1N)c1cccs1` [4a], the “SI Values (CC50/IC50)” value with MCF-7 [1] is recorded as 11.23. Also, the IC50 with MCF-7 [2] stood at 16.3 ± 1 µM. For the same compound, the CC50 at 72 h in “in vitro” is 183 ± 21.3 µM.

On to `C/C(=N\N=c1/sc(/N=N/c2ccc(C)cc2)c(C)n1N)c1cccs1` [4b], for which the IC50 in the series on MCF-7 [2] was determined as 10.2 ± 0.8 µM. Besides, in the series “in vitro”, the CC50 at 72 h came out at 176 ± 18.2 µM.

Compound `C/C(=N\N=c1/sc(/N=N/c2ccc(Cl)cc2)c(C)n1N)c1cccs1` [4c] gave a melting point of 205 to 207 °C. Moreover, in the series on MCF-7 [2], the IC50 stood at 19.7 ± 1.3 µM.

The compound `C/C(=N\N=c1/sc(/N=N/c2ccc(Cl)cc2Cl)c(C)n1N)c1cccs1` [4d] yielded a melting point of 227 to 229 °C. Besides, in the series on MCF-7 [2], the IC50 turned out to be 19.8 ± 0.9 µM.

Take `CC(=NN=C1SC(=NNc2ccc(C)cc2)C(=O)N1N)c1cccs1` [8a, 3-Amino-2-[(1-(thiophen-2-yl)ethylidene)hydrazineylidene]-5-(2-(p-tolyl)hydrazineylidene) thiazolidin-4-one]: in the series on MCF-7 [1], the “SI Values (CC50/IC50)” value came out at 10.99. The IC50 in the series on MCF-7 [2] worked out at 13.6 ± 0.9 µM. Also, the CC50 at 72 h in “in vitro” amounted to 149 ± 15.9 µM.

The compound `CC(=NN=C1SC(=NNc2ccc(Cl)cc2)C(=O)N1N)c1cccs1` [8b, 3-Amino-5-(2-(4-chlorophenyl)hydrazineylidene)-2-[(1-(thiophen-2-yl)ethylidene) hydrazineylidene]thiazolidin-4-one] registered a melting point of 177 to 179 °C. The 50% inhibitory concentration (IC50) in the series on MCF-7 [2] is 23.7 ± 1.6 µM.

The compound `C/C(=N\N=c1/scc(-c2ccccc2)n1N)c1cccs1` [11a] displayed a melting point of 166 to 168 °C. Also, the IC50 with MCF-7 [2] was 21 ± 0.7 µM.

For `C/C(=N\N=c1/scc(-c2ccc(C)cc2)n1N)c1cccs1` [11b], in the series on MCF-7 [1], the “SI Values (CC50/IC50)” value worked out at 12.93. Moreover, the IC50 with MCF-7 [2] was determined as 17.9 ± 0.8 µM. The compound also had a CC50 at 72 h in “in vitro” of 231 ± 25 µM.

`C/C(=N\N=c1/scc(-c2ccc(Cl)cc2)n1N)c1cccs1` [11c] came in with a melting point of 180 to 182 °C. Besides, the IC50 in the series with MCF-7 [1] was found to be 38.2 ± 1.4 µM. In addition, the IC50 with MCF-7 [2] was over 38 µM.

`C/C(=N\N=c1/scc(-c2ccc([N+](=O)[O-])cc2)n1N)c1cccs1` [11d] displayed a melting point of 194 to 196 °C. In addition, in the series on MCF-7 [1], the IC50 amounted to 54.8 ± 1.6 µM. Further, the IC50 with MCF-7 [2] was over 38 µM.

Take `CC(=O)c1sc(=NN=C(C)c2cccs2)n(N)c1C` [13a, 1-[3-Amino-4-methyl-2-((1-(thiophen-2-yl)ethylidene)hydrazineylidene]-2,3-dihydrothiazol-5-yl)ethan-1-one]: in the series on MCF-7 [1], the “SI Values (CC50/IC50)” value is given as 14.14. The IC50 with MCF-7 [2] came out at 11.5 ± 0.8 µM. Moreover, in “in vitro”, the CC50 at 72 h stood at 163 ± 19.1 µM.

For `CCOC(=O)c1s/c(=N\N=C(/C)c2cccs2)n(N)c1C` [13b], the “SI Values (CC50/IC50)” value with MCF-7 [1] was determined as 8.29. Besides, the IC50 with MCF-7 [2] was 16.3 ± 1.4 µM. The CC50 at 72 h in the series “in vitro” was 135 ± 9.58 µM.

In the case of `N.N.[Cl][Pt][Cl]` [Cisplatin, cisplatin, reference compound], the IC50 with MCF-7 [1] came out at 13.3 ± 0.61 µM.

For orientation: IC50 means the concentration that inhibits the measured activity by half. What is called melting point is the temperature, or range, at which the solid turns liquid.

Values taken from PMC9320749, “Synthesis, Molecular Docking Study, and Cytotoxic Activity against MCF Cells of New Thiazole–Thiophene Scaffolds” (Molecules, 2022).
